Measurements: patent publication US4108991A, “N-aminosulfenyl derivatives of aldicarb” (priority 1976, dated 1978)
Values joined by “and” are separate entries in the source; they are usually repeats but may differ in a detail not shown here. Equal entries are not always repeated.

Assays:
Confused flour beetle = test: Initial contact activity, sprayed dishes, confused flour beetle; format: in vivo, Tribolium confusum duVal; conditions: Tribolium confusum, 48 h, read-out: Percent Kill
Procedure: (§1) Initial Contact Activity: One half gram of test compound was dissolved in 40 ml of acetone and this solution was dispersed in 360 ml of water containing one drop of isooctylphenyl polyethoxyethanol. Aliquots of this solution, which corresponds to 1250 ppm of active ingredient, were diluted with an appropriate amount of water to provide solutions containing various concentrations of active ingredient. Test organisms and techniques were as follows: The activity against the Mexican bean beetle (Epilachna varivestis Muls.) and the southern armyworm (Spodoptera eridania [Cram.]) was evaluated by dipping the leaves of pinto bean plants into the test solution and infesting the leaves with the appropriate immature-form insects when the foiliage had dried; the activity against the pea aphid (Acyrthosiphon pisum [Harris]) was evaluated on broad bean plants whose leaves were dipped before infestation with adult aphids; the activity against two-sotted spider mites (Tetranychus urticae Koch) was evaluated on pinto bean plants whose leaves were dipped after infestation with adult mites; the activity against the milkweed bug (Oncopeltus fasciatus [Dallas]), and the plum curculio (Conotrachelus nenuphar [Herbst]) was evaluated by spraying the test solutions into glass dishes or jars containing the adult insects; the activity against the confused flour beetle (Tribolium confusum duVal) was evaluated by introducing the insects into glass dishes which had been previously sprayed with test solution and allowed to dry. All organisms in the test were maintained in a holding room at 80° F and 50% relative humidity for an exposure period of 48 hours. At the end of this time, the dead and living insects or mites were counted, and the percent kill was calculated.

Milkweed bug [1] = test: Initial contact activity, spray, milkweed bug; format: in vivo, Oncopeltus fasciatus [Dallas]
Procedure: as §1

Milkweed bug [2] = test: Residual (7-day) contact activity, milkweed bug; format: in vivo, Oncopeltus fasciatus [Dallas]; conditions: for Percent Kill: residual 7-day, MWB
Procedure: as §1
(§2) Residual Contact Activity: The residual contact activity of the compounds was determined on the same organisms using the techniques described above, except that in each case the treated surface was allowed to dry and was exposed to normal light and air for seven days before introduction of the mites or insects.

[3] = Toxicity to rats, acute oral median lethal dose (LD50), Method A; format: in vivo, young female albino rats, derived from Sprague-Dawley stock; conditions: in vivo, rat, corn oil, 14 days observation
Procedure: Method A: Young female albino rats, derived from Sprague-Dawley stock and weighing between 175 and 200 g, were used. An initial screening was conducted to determine the general level of toxicity of the test compounds and to establish the dosing range to be used with each compound. The test materials were suspended in corn oil and administered directly into the stomachs of the rats, using a hypodermic syringe equipped with a ball-tipped intubating needle. A range of dosing levels was employed utilizing two rats at each level. […] This method was used to determine the toxicity to rats of the compounds of Examples I, II, and III and aldicarb.

Mexican bean beetle [4] = test: Initial contact activity, leaf dip, Mexican bean beetle; format: in vivo, Epilachna varivestis Muls.
Procedure: as §1

Two-spotted spider mite [5] = test: Systemic activity, soil-watering, two-spotted spider mite; format: in vivo, Tetranychus urticae Koch; conditions: Tetranychus urticae, 48 h
Procedure: as §1
(§3) Systemic Activity: Systemic activity was measured using a soil-watering technique. Test organisms were Mexican bean beetle, southern armyworm, pea aphid, and mites on plants as described above in this Example. With appropriate precautions to avoid contact of the solution with the test plant surfaces, 25 ml of a test solution, prepared as above to contain the desired amount of active ingredient, were poured evenly over the surface of the soil in which the plant was growing. The treated plants were maintained under normal growing conditions for three days to permit translocation of the toxicant, after which the leaves were infested. Two days after infestation, counts of living and dead insects were made.

Two-spotted spider mite [6] = test: Residual (7-day) contact activity, two-spotted spider mite; format: in vivo, Tetranychus urticae Koch
Procedure: as §1, §2

Mexican bean beetle [7] = test: Residual (7-day) contact activity, Mexican bean beetle; format: in vivo, Epilachna varivestis Muls.; conditions: Epilachna varivestis, 168 h
Procedure: as §1, §2

Pea aphid [8] = test: Initial contact activity, leaf dip, pea aphid; format: in vivo, Acyrthosiphon pisum [Harris]; conditions: for Percent Kill: initial, PA, 48 hours
Procedure: as §1

Mexican bean beetle [9] = test: Systemic activity, soil-watering, Mexican bean beetle; format: in vivo, Epilachna varivestis Muls.; conditions: Epilachna varivestis, 48 h
Procedure: as §1, §3

Granary Weevil = test: Residual (7-day) contact activity, granary weevil; format: in vivo; conditions: Sitophilus granarius, 168 h, read-out: Percent Kill
Southern armyworm = test: Systemic activity, soil-watering, southern armyworm; format: in vivo, Spodoptera eridania [Cram.]; conditions: Spodoptera eridania, 48 h, read-out: Percent Kill
Procedure: as §1, §3

Pea aphid [10] = test: Systemic activity, soil-watering, pea aphid; format: in vivo, Acyrthosiphon pisum [Harris]
Procedure: as §1, §3

Plum curculio = test: Initial contact activity, spray, plum curculio; format: in vivo, Conotrachelus nenuphar [Herbst]; conditions: Conotrachelus nenuphar, 48 h, read-out: Percent Kill
Procedure: as §1

SMILES: CNC(=O)ON=CC(C)(C)SC [Aldicarb, 2-methyl-2-(methylthio)propanal O-(methylcarbamoyl)oxime]
- mortality at 156 ppm (Confused flour beetle): 5%
- mortality at 312 ppm (Confused flour beetle): 10%
- mortality at 1250 ppm (Confused flour beetle): 90%
- mortality at 5 ppm (Milkweed bug [1]; Oncopeltus fasciatus, 48 h, read-out: Percent Kill, initial, MWB, 5 PPM, 48 hours): 30%
- mortality at 10 ppm (Milkweed bug [1]; Oncopeltus fasciatus, 48 h, read-out: Percent Kill, initial, MWB, 10 PPM, 48 hours): 55%
- mortality at 20 ppm (Milkweed bug [1]; Oncopeltus fasciatus, 48 h, read-out: Percent Kill, initial, MWB, 20 PPM, 48 hours): 95%
- mortality at 39 ppm (Milkweed bug [1]; Oncopeltus fasciatus, 48 h, read-out: Percent Kill, initial, MWB, 39 PPM, 48 hours): 100%
- mortality at 156 ppm (Milkweed bug [1]; Oncopeltus fasciatus, 48 h, read-out: Percent Kill, initial, MWB, 156 PPM, 48 hours): 100%
- mortality at 1250 ppm (Milkweed bug [1]; Oncopeltus fasciatus, 48 h, read-out: Percent Kill, initial, MWB, 1250 PPM, 48 hours): 100%
- Percent Kill (Milkweed bug [1]; initial, MWB, 10 PPM, 48 hours, 2880 min): 70%
- mortality at 156 ppm (Milkweed bug [2]; Oncopeltus fasciatus, 168 h, read-out: Percent Kill, residual 7-day, MWB, 156 PPM): 15%
- mortality at 312 ppm (Milkweed bug [2]; Oncopeltus fasciatus, 168 h, read-out: Percent Kill, residual 7-day, MWB, 312 PPM): 80%
- mortality at 625 ppm (Milkweed bug [2]; Oncopeltus fasciatus, 168 h, read-out: Percent Kill, residual 7-day, MWB, 625 PPM): 100%
- mortality at 1250 ppm (Milkweed bug [2]; Oncopeltus fasciatus, 168 h, read-out: Percent Kill, residual 7-day, MWB, 1250 PPM): 100%
- Percent Kill (Milkweed bug [2]; 312 PPM): 70%
- Percent Kill (Milkweed bug [2]; 1250 PPM): 100%
- LD50 at 336 h [3]: 0.5 mg/kg
- mortality at 20 ppm (Mexican bean beetle [4]; Epilachna varivestis, foliar, 48 h, read-out: Percent Kill, initial, BB, 20 PPM, 48 hours): 0%
- mortality at 39 ppm (Mexican bean beetle [4]; Epilachna varivestis, foliar, 48 h, read-out: Percent Kill, initial, BB, 39 PPM, 48 hours): 40%
- mortality at 156 ppm (Mexican bean beetle [4]; Epilachna varivestis, foliar, 48 h, read-out: Percent Kill, initial, BB, 156 PPM, 48 hours): 89%
- mortality at 312 ppm (Mexican bean beetle [4]; Epilachna varivestis, foliar, 48 h, read-out: Percent Kill, initial, BB, 312 PPM, 48 hours): 95%
- mortality at 625 ppm (Mexican bean beetle [4]; Epilachna varivestis, foliar, 48 h, read-out: Percent Kill, initial, BB, 625 PPM, 48 hours): 100%
- mortality at 1250 ppm (Mexican bean beetle [4]; Epilachna varivestis, foliar, 48 h, read-out: Percent Kill, initial, BB, 1250 PPM, 48 hours): 100%
- Percent Kill (Mexican bean beetle [4]; initial, BB, 156 PPM, 48 hours, 2880 min): 91%
- mortality at 2.5 ppm (Two-spotted spider mite [5]; read-out: Percent Kill, systemic, SM, 2.5 PPM): 4.6%
- mortality at 10 ppm (Two-spotted spider mite [5]; read-out: Percent Kill, systemic, SM, 10 PPM): 100%
- mortality at 39 ppm (Two-spotted spider mite [5]; read-out: Percent Kill, systemic, SM, 39 PPM): 100%
- mortality at 39 ppm (Two-spotted spider mite [6]; Tetranychus urticae, 168 h, read-out: Percent Kill, residual 7-day, SM, 39 PPM): 17%
- mortality at 156 ppm (Two-spotted spider mite [6]; Tetranychus urticae, 168 h, read-out: Percent Kill, residual 7-day, SM, 156 PPM): 91.5%
- mortality at 312 ppm (Two-spotted spider mite [6]; Tetranychus urticae, 168 h, read-out: Percent Kill, residual 7-day, SM, 312 PPM): 97%
- mortality at 1250 ppm (Two-spotted spider mite [6]; Tetranychus urticae, 168 h, read-out: Percent Kill, residual 7-day, SM, 1250 PPM): 98.6%
- Percent Kill (Two-spotted spider mite [6]; residual 7-day, SM, 156 PPM): 90%
- mortality at 625 ppm (Mexican bean beetle [7]; read-out: Percent Kill, residual 7-day, BB, 625 PPM): 47%
- mortality at 1250 ppm (Mexican bean beetle [7]; read-out: Percent Kill, residual 7-day, BB, 1250 PPM): 100%
- mortality at 10 ppm (Pea aphid [8]; Acyrthosiphon pisum, foliar, 48 h, read-out: Percent Kill, initial, PA, 10 PPM, 48 hours): 33%
- mortality at 20 ppm (Pea aphid [8]; Acyrthosiphon pisum, foliar, 48 h, read-out: Percent Kill, initial, PA, 20 PPM, 48 hours): 35%
- mortality at 156 ppm (Pea aphid [8]; Acyrthosiphon pisum, foliar, 48 h, read-out: Percent Kill, initial, PA, 156 PPM, 48 hours): 100%
- mortality at 1250 ppm (Pea aphid [8]; Acyrthosiphon pisum, foliar, 48 h, read-out: Percent Kill, initial, PA, 1250 PPM, 48 hours): 100%
- Percent Kill (Pea aphid [8]; 39 PPM, 2880 min): 60% and 85%
- Percent Kill (Pea aphid [8]; 156 PPM): 100%
- mortality at 39 ppm (Mexican bean beetle [9]; read-out: Percent Kill, systemic, BB, 39 PPM): 100%
- mortality at 156 ppm (Mexican bean beetle [9]; read-out: Percent Kill, systemic, BB, 156 PPM): 100%
- mortality at 312 ppm (Granary Weevil): 3.3%
- mortality at 1250 ppm (Granary Weevil): 0%
- mortality at 39 ppm (Southern armyworm): 50%
- mortality at 312 ppm (Southern armyworm): 100%
- mortality at 625 ppm (Southern armyworm): 100%
- mortality at 5 ppm (Pea aphid [10]; Acyrthosiphon pisum, 48 h, read-out: Percent Kill, systemic, PA, 5 PPM): 100%
- mortality at 10 ppm (Pea aphid [10]; Acyrthosiphon pisum, 48 h, read-out: Percent Kill, systemic, PA, 10 PPM): 90%
- mortality at 39 ppm (Pea aphid [10]; Acyrthosiphon pisum, 48 h, read-out: Percent Kill, systemic, PA, 39 PPM): 100%
- mortality at 321 ppm (Pea aphid [10]; Acyrthosiphon pisum, 48 h, read-out: Percent Kill, systemic, PA, 321 PPM): 100%
- Percent Kill (Pea aphid [10]; systemic, PA, 10 PPM, 2880 min): 100%
- mortality at 10 ppm (Plum curculio): 10%
- mortality at 39 ppm (Plum curculio): 35%
- mortality at 156 ppm (Plum curculio): 100%
- mortality at 1250 ppm (Plum curculio): 100%
